{
  "source": "patent US8541460B2",
  "about": "“PDK-1/Akt signaling inhibitors” (The Ohio State University, priority 2003, dated 2013)",
  "key": {"NCI-H226": {"test_system": "NCI-H226", "experiment": "NCI DTP cell line screen (SRB), Non-Small Cell Lung Cancer", "type": "cell-based, human", "procedure": "(§1) Screening of compounds 70 and 71 against several cancer cell lines The human tumor cell lines of the cancer screening panel are grown in RPMI 1640 medium containing 5% fetal bovine serum and 2 mM L-glutamine. For a typical screening experiment, cells are inoculated into 96 well microtiter plates in 100 μL at plating densities ranging from 5,000 to 40,000 cells/well depending on the doubling time of individual cell lines. After cell inoculation, the microtiter plates are incubated at 37° C., 5% CO2, 95% air and 100% relative humidity for 24 h prior to addition of experimental drugs.\n(§2) After 24 h, two plates of each cell line are fixed in situ with TCA, to represent a measurement of the cell population for each cell line at the time of drug addition (Tz). Experimental drugs are solubilized in dimethyl sulfoxide at 400-fold the desired final maximum test concentration and stored frozen prior to use. At the time of drug addition, an aliquot of frozen concentrate is thawed and diluted to twice the desired final maximum test concentration with complete medium containing 50 μg/ml gentamicin. Additional four, 10-fold or ½ log serial dilutions are made to provide a total of five drug concentrations plus control. Aliquots of 100 μl of these different drug dilutions are added to the appropriate microtiter wells already containing 100 μl of medium, resulting in the required final drug concentrations.\n(§3) Following drug addition, the plates are incubated for an additional 48 h at 37° C., 5% CO2, 95% air, and 100% relative humidity. For adherent cells, the assay is terminated by the addition of cold TCA. Cells are fixed in situ by the gentle addition of 50 μl of cold 50% (w/v) TCA (final concentration, 10% TCA) and incubated for 60 minutes at 4° C. The supernatant is discarded, and the plates are washed five times with tap water and air dried. Sulforhodamine B (SRB) solution (100 μl) at 0.4% (w/v) in 1% acetic acid is added to each well, and plates are incubated for 10 minutes at room temperature. After staining, unbound dye is removed by washing five times with 1% acetic acid and the plates are air dried. Bound stain is subsequently solubilized with 10 mM trizma base, and the absorbance is read on an automated plate reader at a wavelength of 515 nm. For suspension cells, the methodology is the same except that the assay is terminated by fixing settled cells at the bottom of the wells by gently adding 50 μl of 80% TCA (final concentration, 16% TCA). Using the seven absorbance measurements [time zero, (Tz), control growth, (C), and test growth in the presence of drug at the five concentration levels (Ti)], the percentage growth is calculated at each of the drug concentrations levels. Percentage growth inhibition is calculated as: [(Ti−Tz)/(C−Tz)]×100 for concentrations for which Ti>/=Tz [(Ti−Tz)/Tz]×100 for concentrations for which Ti<Tz\n(§4) Three dose response parameters are calculated for each experimental agent. […] The drug concentration resulting in total growth inhibition (TGI) is calculated from Ti=Tz. […] Values are calculated for each of these three parameters if the level of activity is reached; however, if the effect is not reached or is exceeded, the value for that parameter is expressed as greater or less than the maximum or minimum concentration tested.\n(§5) The methods described were used to test compounds 70 and 71 on a panel of sixty cell lines under a screening service provided by the Developmental Therapeutics Program at the National Institutes of Health. Shown in FIG. 1C are 1, RPMI-8226 leukemia cells; 2; NCI-H322M non-small cell lung cancer cells; 3, HT29 colon cancer cells; 4, U251 CNS cancer cells; 5, SK-MEL-28 melanoma cancer cells; 6, SK-OV-3 ovarian cancer cells; 7, RXF 393 renal cancer cells; 8, PC-3 prostate cancer cells; 9, MDA-MB-231 breast cancer cells."}, "SF-268": {"test_system": "SF-268", "experiment": "NCI DTP cell line screen (SRB), CNS Cancer", "type": "cell-based", "procedure": "as §1, §2, §3, §4, §5"}, "SF-295": {"test_system": "SF-295", "experiment": "NCI DTP cell line screen (SRB), CNS Cancer", "type": "cell-based", "procedure": "as §1, §2, §3, §4, §5"}, "BT-549": {"test_system": "BT-549", "experiment": "NCI DTP cell line screen (SRB), Breast Cancer", "type": "cell-based"}, "recombinant PDK-1": {"biological_target": "T1, recombinant PDK-1 (Homo sapiens, UniProt O15530)", "T1 construct": "purchased Upstate (Lake Placid, N.Y.)", "T1 sequence (O15530 1-556)": "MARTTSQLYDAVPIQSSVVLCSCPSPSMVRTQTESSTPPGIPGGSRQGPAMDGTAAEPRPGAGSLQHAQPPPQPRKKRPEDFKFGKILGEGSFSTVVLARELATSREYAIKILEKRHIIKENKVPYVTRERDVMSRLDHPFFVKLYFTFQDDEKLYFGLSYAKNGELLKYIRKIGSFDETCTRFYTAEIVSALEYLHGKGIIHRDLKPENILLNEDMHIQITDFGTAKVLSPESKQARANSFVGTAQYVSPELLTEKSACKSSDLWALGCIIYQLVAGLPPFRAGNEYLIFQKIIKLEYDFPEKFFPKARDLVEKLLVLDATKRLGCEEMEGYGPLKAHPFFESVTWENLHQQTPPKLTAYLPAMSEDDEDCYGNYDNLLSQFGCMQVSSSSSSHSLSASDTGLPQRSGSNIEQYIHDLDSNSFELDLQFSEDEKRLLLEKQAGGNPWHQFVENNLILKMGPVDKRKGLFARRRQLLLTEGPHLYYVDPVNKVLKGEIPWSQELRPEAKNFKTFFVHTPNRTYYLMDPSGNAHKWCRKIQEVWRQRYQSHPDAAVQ", "experiment": "PDK-1 kinase activity (Upstate kit, cell-free)", "type": "biochemical", "method": "PDK-1 kinase activity This in vitro assay was performed using a PDK-1 kinase assay kit (Upstate, Lake Placid, N.Y.) according to the vendor's instructions. This cell-free assay is based on the ability of recombinant PDK-1, in the presence of DMSO vehicle or the test agent, to activate its downstream kinase serum- and glucocorticoid-regulated kinase (SGK.) which, in turn, phosphorylates the Akt/SGK-specific peptide substrate RPRAATF with [γ-^32]-ATP. […] The reported values represent the means of two independent determinations."}},
  "data": [
    {"smiles": "NCC(=O)Nc1ccc(-n2nc(C(F)(F)F)cc2-c2ccc3c(ccc4ccccc43)c2)cc1", "note": "[Compound 70, 2-Amino-N-{4-[5-(2-phenanthrenyl)-3-(trifluoromethyl)-1H-pyrazol-1-yl]-phenyl}-acetamide]", "values": [
      {"measurement": "Percent Growth", "setting": "NCI-H226; Log10 Concentration −4.0", "value": "−48", "unit": "%"},
      {"measurement": "Percent Growth", "setting": "NCI-H226; Log10 Concentration −5.0", "value": "−58", "unit": "%"},
      {"measurement": "Percent Growth", "setting": "NCI-H226; Log10 Concentration −6.0", "value": 59, "unit": "%"},
      {"measurement": "Percent Growth", "setting": "NCI-H226; Log10 Concentration −7.0", "value": 98, "unit": "%"},
      {"measurement": "Percent Growth", "setting": "NCI-H226; Log10 Concentration −8.0", "value": 100, "unit": "%"},
      {"measurement": "TGI", "setting": "NCI-H226; in M (unit assumed)", "value": "3.21E−06"},
      {"measurement": "TGI", "setting": "SF-268", "value": "4.16E−06"},
      {"measurement": "Percent Growth", "setting": "SF-268; Log10 Concentration −4.0", "value": 26, "unit": "%"},
      {"measurement": "Percent Growth", "setting": "SF-268; Log10 Concentration −5.0", "value": "−33", "unit": "%"},
      {"measurement": "Percent Growth", "setting": "SF-268; Log10 Concentration −6.0", "value": 54, "unit": "%"},
      {"measurement": "Percent Growth", "setting": "SF-268; Log10 Concentration −7.0", "value": 72, "unit": "%"},
      {"measurement": "Percent Growth", "setting": "SF-268; Log10 Concentration −8.0", "value": 84, "unit": "%"},
      {"measurement": "TGI", "setting": "SF-295", "value": "3.71E−06"},
      {"measurement": "Percent Growth", "setting": "SF-295; Log10 Concentration −4.0", "value": "−32", "unit": "%"},
      {"measurement": "Percent Growth", "setting": "SF-295; Log10 Concentration −5.0", "value": "−47", "unit": "%"},
      {"measurement": "Percent Growth", "setting": "SF-295; Log10 Concentration −6.0", "value": 62, "unit": "%"},
      {"measurement": "Percent Growth", "setting": "SF-295; Log10 Concentration −7.0", "value": 96, "unit": "%"},
      {"measurement": "Percent Growth", "setting": "SF-295; Log10 Concentration −8.0", "value": 94, "unit": "%"},
      {"measurement": "TGI", "setting": "BT-549", "value": "2.95E−06"},
      {"measurement": "Percent Growth", "setting": "BT-549; Log10 Concentration −4.0", "value": "−60", "unit": "%"},
      {"measurement": "Percent Growth", "setting": "BT-549; Log10 Concentration −5.0", "value": "−71", "unit": "%"},
      {"measurement": "Percent Growth", "setting": "BT-549; Log10 Concentration −6.0", "value": 63, "unit": "%"},
      {"measurement": "Percent Growth", "setting": "BT-549; Log10 Concentration −7.0", "value": 86, "unit": "%"},
      {"measurement": "Percent Growth", "setting": "BT-549; Log10 Concentration −8.0", "value": 90, "unit": "%"},
      {"measurement": "increase in potency over compound 59 (PDK-1 inhibition)", "setting": "recombinant PDK-1", "value": "two"}
    ]}
  ]
}
